# Laboratory results published in US11654101B2, “Use of magnolia, juniper or violet absolute in cosmetics for depigmenting the skin” (ROBERTET S.A., priority 2017, dated 2023).
# Tested on: murine melanocytes B16-F10
# Assay: Tests on B16 melanocytes, dosing of the intracellular melanin
# Assay type: cell-based
# Details: B16-F10 cells incubated 24 h at 37° C.; intracellular melanin content, absorbance 405 nm
# Method: […] model tests on melanin-producing cells, the murine melanocytes B16-F10, have been necessary. The decrease in the cellular tyrosinase activity, associated with a reduction of the intracellular melanin content, while preserving the survival of the cells by non-cytotoxic concentrations, have then been investigated. For this purpose, the B16-F10 cells have been seeded into 24-well plates, and incubated for 24 h at 37° C. with several concentrations of different selected raw materials. […] Afterwards, the cells are lysed, and centrifuged. In turn, the cell pellet is dissolved by a NaOH 1N solution and incubated for 1 hour at 70° C. before being deposited in a 96-well plate put in the spectrophotometer at 405 nm. Afterwards, a comparison with the absorbance of a standard melanin calibrated range allows determining the intracellular melanin content of each condition and checking on the inhibitor effect of the melanogenesis by the different raw materials.
structure (smiles),measurement,value
"O=c1cc(CO)occ1O [Kojic acid, kojic acid]",Effective IC50,214 ppm
